Data from US8765730B2 (Hoffmann-La Roche Inc, priority 2010, dated 2014).
Like-named read-outs stand apart in the source and are kept apart here.

Target: T1, human GPBAR1 receptor (Homo sapiens, UniProt Q8TDU6)
T1 construct: expressed in transfected cells
T1 sequence (Q8TDU6 1-330): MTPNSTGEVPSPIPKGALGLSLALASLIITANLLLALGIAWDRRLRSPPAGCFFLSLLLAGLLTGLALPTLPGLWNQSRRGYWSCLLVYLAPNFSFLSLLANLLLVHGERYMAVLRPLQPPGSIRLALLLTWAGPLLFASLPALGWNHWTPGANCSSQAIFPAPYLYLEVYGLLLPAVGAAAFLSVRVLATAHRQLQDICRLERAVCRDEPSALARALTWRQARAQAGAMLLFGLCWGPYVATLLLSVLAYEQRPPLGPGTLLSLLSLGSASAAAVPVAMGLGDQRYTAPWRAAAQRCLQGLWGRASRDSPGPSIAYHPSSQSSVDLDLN
Test: functional cAMP assay in CHO-dhfr(minus) cells expressing human GPBAR1 receptors
Format: cell-based
Conditions: 30 min at 30° C.
Method: The final clone was verified by DNA sequence analysis. The plasmid was transfected into CHO cells deficient in dihydrofolate reductase activity (CHO-dhfr−) using Lipofectamine plus (Invitrogen). Clones were isolated in limited dilution conditions and identified by activities in the cAMP assay using lithocholic acid as agonist.
The growth medium was exchanged with Krebs Ringer Bicarbonate buffer with 1 mM IBMX and incubated at 30° C. for 30 min. Compounds were added to a final assay volume of 100 μl and incubated for 30 min at 30° C. […] The time-resolved energy transfer is measured by a TRF reader (Evotec Technologies GmbH, Hamburg Germany), equipped with a ND:YAG laser as excitation source.
EC50 values were determined using Activity Base analysis (ID Business Solution, Limited). […] Specificity for GPBAR1 was tested in non-transfected CHO cells in the same assay as above.

[1] = human EC50, functional cAMP assay

Row | EC50 [1] [nM] | EC50 (functional cAMP assay, read-out: human EC50) [nM] | SMILES
1 | 75 |  | COCCN(C)c1ccc(C(C/C(=N\O)c2ccncc2)c2ccccc2C)cc1 (stereo not shown) [Example 39, (E)-3-{4-[(2-Methoxy-ethyl)-methyl-amino]-phenyl}-1-pyridin-4-yl-3-o-tolyl-propan-1-one oxime]
2 | 39 |  | Cc1cc(/C(CC(c2ccc(C(=O)NCCN3CCS(=O)(=O)CC3)cc2)c2ccc(F)cc2F)=N/O)ccn1 (stereo not shown) [Example 441, 4-[1-(2,4-Difluoro-phenyl)-3-[(E)-hydroxyimino]-3-(2-methyl-pyridin-4-yl)-propyl]-N-[2-(1,1-dioxo-1λ^6-thiomorpholin-4-yl)-ethyl]-benzamide]
3 | 566 |  | Cc1cc(Cl)ccc1C(C/C(=N\O)c1ccc(=O)n(C)c1)c1ccc(O)c(F)c1 (stereo not shown) [Example 324, 5-{3-(4-Chloro-2-methyl-phenyl)-3-(3-fluoro-4-hydroxy-phenyl)-1-[(E)-hydroxyimino]-propyl}-1-methyl-1H-pyridin-2-one]
4 | 36 |  | Cc1ccccc1C(CC(=NO)c1ccncc1)c1ccc(N2CCOCC2)cc1 (racemic) [Example 41, 3-(4-Morpholin-4-yl-phenyl)-1-pyridin-4-yl-3-o-tolyl-propan-1-one oxime]
5 | 107 |  | Cn1cc(/C(CC(c2ccc(Br)cc2F)C2CCCC2)=N/O)ccc1=O (stereo not shown) [Example 192, 5-{3-(4-Bromo-2-fluoro-phenyl)-3-cyclopentyl-1-[(E)-hydroxyimino]-propyl}-1-methyl-1H-pyridin-2-one]
6 | 3 |  | Cc1cc(/C(C[C@H](c2ccc(-c3ccc(C(=O)NCC(=O)O)cc3)cc2)c2ccccc2C)=N/O)ccn1 [Example 96, ({4′-[(R)-3-[(E)-Hydroxyimino]-3-(2-methyl-pyridin-4-yl)-1-o-tolyl-propyl]-biphenyl-4-carbonyl}-amino)-acetic acid]
7 | 21 |  | Cc1cc(/C(C[C@H](c2ccc(-c3ccc(C(=O)O)cc3)cc2)c2ccccc2C)=N/O)cc(C)n1 [Example 294, 4′-{(R)-3-(2,6-Dimethyl-pyridin-4-yl)-3-[(E)-hydroxyimino]-1-o-tolyl-propyl}-biphenyl-4-carboxylic acid]
8 | 2520 |  | CC(=O)Nc1cccc(C(C/C(=N\O)c2ccc(=O)n(C)c2)c2ccc(Cl)cc2F)c1 (stereo not shown) [Example 319, (E)-N-(3-(1-(4-Chloro-2-fluorophenyl)-3-(hydroxyimino)-3-(1-methyl-6-oxo-1,6-dihydropyridin-3-yl)propyl)phenyl)acetamide]
9 | 6 |  | Cc1cc(F)ccc1C(C/C(=N\O)c1ccc(=O)n(C)c1)c1ccc(Br)cc1 (stereo not shown) [Example 224, (E)-5-(3-(4-Bromophenyl)-3-(4-fluoro-2-methylphenyl)-1-(hydroxyimino)propyl)-1-methylpyridin-2(1H)-one]
10 | 137 |  | COCCNC(=O)c1ccc(C(C/C(=N\O)c2ccc(=O)n(C)c2)c2ccccc2Cl)cc1F (stereo not shown) [Example 232, (E)-4-(1-(2-Chlorophenyl)-3-(hydroxyimino)-3-(1-methyl-6-oxo-1,6-dihydropyridin-3-yl)propyl)-2-fluoro-N-(2-methoxyethyl)benzamide]
11 | 49 |  | Cc1cc(/C(CC(c2ccc(C(=O)NC[C@@H](C)O)cc2)c2ccc(F)cc2F)=N/O)ccn1 (stereo partly drawn) [Example 434, 4-[1-(2,4-Difluoro-phenyl)-3-[(E)-hydroxyimino]-3-(2-methyl-pyridin-4-yl)-propyl]-N—((R)-2-hydroxy-propyl)-benzamide]
12 | 1310 |  | O=c1ccc(/C(CC(c2ccccc2)c2ccccc2)=N/O)c[nH]1 [Example 160, 5-{1-[(E)-Hydroxyimino]-3,3-diphenyl-propyl}-1H-pyridin-2-one]
13 | 8 |  | COCc1nnc(-c2ccc([C@@H](C/C(=N\O)c3ccnc(C)c3)c3ccccc3C)cc2)o1 [Example 419, ((−), E)-3-[4-(5-Methoxymethyl-[1,3,4]oxadiazol-2-yl)-phenyl]-1-(2-methyl-pyridin-4-yl)-3-o-tolyl-propan-1-one oxime]
14 |  | 8620 | O/N=C(/CC(O)(c1ccccc1)c1ccccc1)c1ccncc1 [Example 155, (Z)-3-Hydroxy-3,3-diphenyl-1-pyridin-4-yl-propan-1-one oxime]
15 | 380 |  | Cc1ccc(C(CC(=NO)c2ccncc2)c2ccc(N(C)C)cc2)cc1C (racemic) [Example 17, 3-(4-Dimethylamino-phenyl)-3-(3,4-dimethyl-phenyl)-1-pyridin-4-yl-propan-1-one oxime]
16 | 12 |  | Cc1cc(/C(C[C@H](c2ccc(C3=CC(=O)NCC3)cc2)c2ccccc2C)=N/O)ccn1 [Example 377, (R,E)-4-(4-(3-(Hydroxyimino)-3-(2-methylpyridin-4-yl)-1-o-tolylpropyl)phenyl)-5,6-dihydropyridin-2(1H)-one]
17 | 118 |  | Cc1ccc(C(C/C(=N\O)c2ccc(=O)n(C)c2)c2ccc(Br)cc2)c(F)c1 (stereo not shown) [Example 408, (E)-5-(3-(4-bromophenyl)-3-(2-fluoro-4-methylphenyl)-1-(hydroxyimino)propyl)-1-methylpyridin-2(1H)-one]
18 | 55 |  | Cc1cc(/C(CC(c2ccc(C(=O)NCCO)cc2)c2ccc(F)cc2F)=N/O)ccn1 (stereo not shown) [Example 433, 4-[1-(2,4-Difluoro-phenyl)-3-[(E)-hydroxyimino]-3-(2-methyl-pyridin-4-yl)-propyl]-N-(2-hydroxy-ethyl)-benzamide]
19 | 14 |  | Cc1ccccc1C(CC(=NO)c1ccncc1)c1ccc(-c2cncnc2)cc1 (racemic) [Example 34, 1-Pyridin-4-yl-3-(4-pyrimidin-5-yl-phenyl)-3-o-tolyl-propan-1-one oxime]
20 | 33 |  | O/N=C(\CC(c1ccccc1)c1ccc(-c2cncnc2)cc1)c1ccncc1 (stereo not shown) [Example 22, (E)-3-Phenyl-1-pyridin-4-yl-3-(4-pyrimidin-5-yl-phenyl)-propan-1-one oxime]
21 | 6890 |  | Cc1ccccc1C(C/C(=N\O)c1ccc(=O)n(C)c1)c1ccc(C(=O)N2CCC(CC(=O)O)CC2)cc1 (stereo not shown) [Example 210, (1-{4-[3-[(E)-Hydroxyimino]-3-(1-methyl-6-oxo-1,6-dihydro-pyridin-3-yl)-1-o-tolyl-propyl]-benzoyl}-piperidin-4-yl)-acetic acid]
22 | 18 |  | Cc1cc(Cl)ccc1C(C/C(=N\O)c1ccc(=O)n(C)c1)c1ccc(-c2ccc(C(=O)NCc3nnn[nH]3)cc2)cc1 (stereo not shown) [Example 230, (E)-N-((1H-tetrazol-5-yl)methyl)-4′-(1-(4-chloro-2-methylphenyl)-3-(hydroxyimino)-3-(1-methyl-6-oxo-1,6-dihydropyridin-3-yl)propyl)biphenyl-4-carboxamide]
23 | 27 |  | Cc1cc(/C(CC(c2ccc(Br)cc2)c2cc(F)cc(F)c2)=N/O)ccn1 (stereo not shown) [Example 445, 3-(4-Bromo-phenyl)-3-(3,5-difluoro-phenyl)-1-(2-methyl-pyridin-4-yl)-propan-1-one oxime]
24 | 365 |  | Cc1ccccc1[C@H](C/C(=N\O)c1ccnc(C(F)(F)F)c1)c1ccc(-c2ccc(C(=O)O)cc2)cc1 [Example 291, 4′-[(R)-3-[(E)-Hydroxyimino]-1-o-tolyl-3-(2-trifluoromethyl-pyridin-4-yl)-propyl]-biphenyl-4-carboxylic acid]
25 | 61 |  | Cn1cc(/C(C[C@@H](c2ccc(-c3ccc(C(=O)O)s3)cc2)c2ccc(Cl)cc2F)=N/O)ccc1=O [Example 470, 5-{4-[(+)-1-(4-Chloro-2-fluoro-phenyl)-3-[(E)-hydroxyimino]-3-(1-methyl-6-oxo-1,6-dihydro-pyridin-3-yl)-propyl]-phenyl}-thiophene-2-carboxylic acid]
